Results reported in patent publication US20170327494A1, “NON-INVASIVE VENTILATION WITH HIGH FREQUENCY OSCILLATIONS” (KONINKLIJKE PHILIPS N.V., priority 2014, published 2017).

melting point: 117 to 119 °C
SMILES: N#C/C(=C1/SCC(c2cc(Cl)sc2Cl)S1)n1ccnc1 (stereo not shown) [I.h.25, (2E)-2-[4-(2,5-dichloro-3-thienyl)-1,3-dithiolan-2-ylidene]-2-imidazol-1-yl-acetonitrile]
